Inconclusive results and toxic doses are left out. No stated cut-off is given here; in the data, active means T/C of 150% or more; inactive means T/C below 125%.
Tested on: L1210 leukemia ip in BDF1 mice, survival T/C
Assay: NCI In Vivo Anticancer Drug Screen. Data for tumor model L1210 Leukemia (intraperitoneal) in B6D2F1 (BDF1) mice
Details: endpoint: mean survival time, higher = longer survival
Outline: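 Survival endpoint. Drug-treated group vs vehicle group, expressed as T divided by C. Tumor passaged by transplantation.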

[1] = dose: 50.0 mg/kg/injection, schedule: Q01DX009 (ip), vehicle: saline with Tween-80
[2] = dose: 100.0 mg/kg/injection, schedule: Q01DX009 (ip), vehicle: saline with Tween-80
[3] = dose: 200.0 mg/kg/injection, schedule: Q01DX009 (ip), vehicle: saline with Tween-80
[4] = dose: 100.0 mg/kg/injection, schedule: Q04DX002 (ip), vehicle: Klucel (hydroxypropylcellulose) (HPC)
[5] = dose: 200.0 mg/kg/injection, schedule: Q04DX002 (ip), vehicle: Klucel (hydroxypropylcellulose) (HPC)
[6] = dose: 400.0 mg/kg/injection, schedule: Q04DX002 (ip), vehicle: Klucel (hydroxypropylcellulose) (HPC)
[7] = dose: 50.0 mg/kg/injection, schedule: Q01DX001 (ip), vehicle: saline
[8] = dose: 100.0 mg/kg/injection, schedule: Q01DX001 (ip), vehicle: saline
[9] = dose: 200.0 mg/kg/injection, schedule: Q01DX001 (ip), vehicle: saline
[10] = dose: 400.0 mg/kg/injection, schedule: Q01DX001 (ip), vehicle: saline
[11] = dose: 100.0 mg/kg/injection, schedule: Q01DX009 (ip), vehicle: saline
[12] = dose: 100.0 mg/kg/injection, schedule: Q04DX003 (ip), vehicle: saline
[13] = dose: 400.0 mg/kg/injection, schedule: Q04DX002 (ip), vehicle: saline with Tween-80
[14] = dose: 100.0 mg/kg/injection, schedule: Q04DX003 (ip), vehicle: Klucel (hydroxypropylcellulose) (HPC)
[15] = dose: 200.0 mg/kg/injection, schedule: Q04DX003 (ip), vehicle: Klucel (hydroxypropylcellulose) (HPC)
[16] = dose: 400.0 mg/kg/injection, schedule: Q04DX003 (ip), vehicle: Klucel (hydroxypropylcellulose) (HPC)
[17] = dose: 100.0 mg/kg/injection, schedule: Q01DX001 (ip), vehicle: carboxymethylcellulose (CMC)
[18] = dose: 200.0 mg/kg/injection, schedule: Q01DX001 (ip), vehicle: carboxymethylcellulose (CMC)
[19] = dose: 200.0 mg/kg/injection, schedule: Q04DX003 (ip), vehicle: saline
[20] = dose: 400.0 mg/kg/injection, schedule: Q04DX003 (ip), vehicle: saline
[21] = dose: 100.0 mg/kg/injection, schedule: Q04DX003 (ip), vehicle: saline with Tween-80
[22] = dose: 200.0 mg/kg/injection, schedule: Q04DX003 (ip), vehicle: saline with Tween-80
[23] = dose: 400.0 mg/kg/injection, schedule: Q04DX003 (ip), vehicle: saline with Tween-80

Measured: T/C

CC(=O)Nc1ccc(/C=N/NC(=O)CNC(=O)Nc2cccc(Cl)c2Cl)cc1
inactive: [1] 121 % of control | [2] 90 % of control | [3] 88 % of control

Cn1cnc2cc(N=Cc3ccc(N(CCCl)CCCl)cc3)ccc21
inactive: [4] 106 % of control | [5] 106 % of control | [6] 109 % of control

Cn1c(=O)c2c(nc(CCCC3CCCCC3)n2C)n(C)c1=O
inactive: [7] 103 % of control | [8] 97 % of control | [9] 111 % of control | [10] 103 % of control

OCCN1CCN(Cc2cccc3ccccc23)CC1
inactive: dose: 25.0 mg/kg/injection, schedule: Q01DX009 (ip), vehicle: saline 112 % of control | dose: 25.0 mg/kg/injection, schedule: Q04DX003 (ip), vehicle: saline 101 % of control | dose: 50.0 mg/kg/injection, schedule: Q01DX009 (ip), vehicle: saline 98 % of control | dose: 50.0 mg/kg/injection, schedule: Q04DX003 (ip), vehicle: saline 102 % of control | [8] 103 % of control | [11] 102 % of control | [12] 98 % of control

O=[N+]([O-])c1ccc(OC(=S)N2CCOCC2)cc1
inactive: dose: 100.0 mg/kg/injection, schedule: Q04DX002 (ip), vehicle: saline with Tween-80 104 % of control | dose: 200.0 mg/kg/injection, schedule: Q04DX002 (ip), vehicle: saline with Tween-80 104 % of control | [13] 101 % of control

COc1ccc(C)cc1CN1NC(=O)CC1=N
inactive: dose: 100.0 mg/kg/injection, schedule: Q01DX009 (ip), vehicle: Klucel (hydroxypropylcellulose) (HPC) 97 % of control | [14] 106 % of control | dose: 200.0 mg/kg/injection, schedule: Q01DX009 (ip), vehicle: Klucel (hydroxypropylcellulose) (HPC) 101 % of control | [15] 110 % of control | dose: 400.0 mg/kg/injection, schedule: Q01DX009 (ip), vehicle: Klucel (hydroxypropylcellulose) (HPC) 98 % of control | [16] 102 % of control

COc1ccc(C2CCCCCC2OS(C)(=O)=O)c(OC)c1OC (stereo not drawn)
inactive: [17] 108 % of control | [18] 119 % of control

Oc1ccc2ccc(Cl)cc2c1
inactive: [17] 95 % of control | [18] 90 % of control | dose: 400.0 mg/kg/injection, schedule: Q01DX001 (ip), vehicle: carboxymethylcellulose (CMC) 95 % of control

C/C(=C(/CCO)SCCC(=O)c1ccccc1)N(C=O)Cc1cnc(C)nc1N
inactive: [12] 101 % of control | [19] 93 % of control | [20] 93 % of control

CCCCCCCCCCCCCCCC(=O)N(c1ccc(NC(=O)Nc2ccc(N(C(=O)CCCCCCCCCCCCCCC)C(C)CCCN(CC)CC)cc2)cc1)C(C)CCCN(CC)CC (stereo not drawn)
inactive: [2] 90 % of control | [3] 92 % of control | dose: 400.0 mg/kg/injection, schedule: Q01DX009 (ip), vehicle: saline with Tween-80 97 % of control

CCN(CC)CC(=O)NCC(CCN(C)C)(c1cccc2ccccc12)C(C)C (stereo not drawn)
inactive: [12] 102 % of control | [19] 93 % of control

CCC[n+]1nsc2ccccc21
inactive: [8] 101 % of control

NC(CCl)=NC1CCCC1
inactive: dose: 25.0 mg/kg/injection, schedule: Q04DX002 (ip), vehicle: saline 109 % of control | dose: 50.0 mg/kg/injection, schedule: Q04DX002 (ip), vehicle: saline 102 % of control | dose: 100.0 mg/kg/injection, schedule: Q04DX002 (ip), vehicle: saline 121 % of control

CCCCC(CC)CN(CCOc1nc(OCCN(CC(CC)CCCC)CC(CC)CCCC)nc(OCCN(CC(CC)CCCC)CC(CC)CCCC)n1)CC(CC)CCCC (stereo not drawn)
inactive: dose: 25.6 mg/kg/injection, schedule: Q04DX002 (ip), vehicle: saline with Tween-80 102 % of control | dose: 64.0 mg/kg/injection, schedule: Q04DX002 (ip), vehicle: saline with Tween-80 94 % of control | dose: 160.0 mg/kg/injection, schedule: Q04DX002 (ip), vehicle: saline with Tween-80 97 % of control | [13] 94 % of control

NC(=N\C1=NCCN1)/C(N)=N/C1=NCCN1
inactive: dose: 100.0 mg/kg/injection, schedule: Q04DX002 (ip), vehicle: gum acacia 89 % of control | dose: 200.0 mg/kg/injection, schedule: Q04DX002 (ip), vehicle: gum acacia 100 % of control | dose: 400.0 mg/kg/injection, schedule: Q04DX002 (ip), vehicle: gum acacia 97 % of control

CCOC(O)C(Cl)(Cl)Cl (stereo not drawn)
inactive: [11] 103 % of control | [12] 100 % of control | dose: 200.0 mg/kg/injection, schedule: Q01DX009 (ip), vehicle: saline 102 % of control | [19] 103 % of control | dose: 400.0 mg/kg/injection, schedule: Q01DX009 (ip), vehicle: saline 92 % of control | [20] 90 % of control

CC(=O)OC1CC2C(=O)CC1(C)C2(C)C (stereo not drawn)
inactive: dose: 75.0 mg/kg/injection, schedule: Q01DX001 (ip), vehicle: saline 102 % of control

CN(C)CCOc1ncnc2nc[nH]c12
inactive: [12] 101 % of control | [19] 102 % of control | [20] 96 % of control

CCN(Cc1ccccc1)c1nnnn1-c1ccccc1
inactive: [12] 96 % of control | [19] 103 % of control | [20] 98 % of control

Cc1ccc(N=Nc2c(C)nc(N)nc2C)c(C)c1
inactive: dose: 75.0 mg/kg/injection, schedule: Q01DX001 (ip), vehicle: other 98 % of control | dose: 150.0 mg/kg/injection, schedule: Q01DX001 (ip), vehicle: other 98 % of control | dose: 300.0 mg/kg/injection, schedule: Q01DX001 (ip), vehicle: other 98 % of control

COc1cc(Cl)c(/C=C2\N=C(c3ccccc3)OC2=O)cc1OC
inactive: [7] 94 % of control | [8] 91 % of control | [9] 97 % of control | [10] 94 % of control

Oc1ccc(CCNCc2ccc3c(c2)OCO3)cc1
inactive: dose: 100.0 mg/kg/injection, schedule: Q01DX001 (ip), vehicle: Klucel (hydroxypropylcellulose) (HPC) 88 % of control | dose: 200.0 mg/kg/injection, schedule: Q01DX001 (ip), vehicle: Klucel (hydroxypropylcellulose) (HPC) 88 % of control | dose: 400.0 mg/kg/injection, schedule: Q01DX001 (ip), vehicle: Klucel (hydroxypropylcellulose) (HPC) 88 % of control

CCOC(=O)c1cnc(SC)nc1Nc1ccccc1
inactive: [21] 94 % of control | [22] 100 % of control | [23] 86 % of control

CN(N=O)C(=O)NC1C(CO)OC2OC(C)(C)OC21 (stereo not drawn)
inactive: dose: 100.0 mg/kg/injection, schedule: Q01DX009 (ip), vehicle: saline sonified 124 % of control | dose: 400.0 mg/kg/injection, schedule: Q01DX009 (ip), vehicle: saline sonified 119 % of control

c1ccc2c(c1)NCCN2
inactive: dose: 12.5 mg/kg/injection, schedule: Q01DX001 (ip), vehicle: saline 97 % of control | dose: 25.0 mg/kg/injection, schedule: Q01DX001 (ip), vehicle: saline 94 % of control

O=C(CSc1cc(Cl)c(Cl)cc1Cl)Nc1ccccc1Br
inactive: [1] 94 % of control | [2] 97 % of control | [3] 87 % of control

O=C(CNC(=O)OCc1ccccc1)NC(Cc1c[nH]c2ccccc12)C(=O)OCc1ccccc1 (stereo not drawn)
inactive: [21] 96 % of control | [22] 100 % of control | [23] 95 % of control

O=C(CCCC(=O)N/N=C/c1cccc(Cl)c1)N/N=C\c1cccc(Cl)c1
inactive: dose: 50.0 mg/kg/injection, schedule: Q01DX001 (ip), vehicle: other 90 % of control | dose: 100.0 mg/kg/injection, schedule: Q01DX001 (ip), vehicle: other 93 % of control | dose: 400.0 mg/kg/injection, schedule: Q01DX001 (ip), vehicle: other 88 % of control

CN(Cc1ccccc1)N=Nc1ccccc1
inactive: dose: 50.0 mg/kg/injection, schedule: Q04DX002 (ip), vehicle: Klucel (hydroxypropylcellulose) (HPC) 103 % of control | [4] 95 % of control | [5] 116 % of control

COc1cc(/C=N/Nc2cc(=O)[nH]c(N)n2)cc(OC)c1OC
inactive: [14] 98 % of control | [15] 100 % of control | [16] 100 % of control

COc1ccc(/C=C/c2ccc3ccccc3n2)cc1
inactive: [4] 111 % of control | [5] 97 % of control | [6] 105 % of control
